Measured values: BindingDB's records for patent US20250313563 (The Broad Institute, 2025)
Several values for one entry are separate records, joined by “and”; a condition that tells them apart may be missing. Equal values may be shown once.

Key:
[1] = target: Glycogen synthase kinase-3 alpha (Homo sapiens, UniProt P49840); experiment: TR-FRET Assay
Method in brief: (§1)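 Compound was preincubated 30 min in assay buffer before the kinase reaction, which was quenched with EDTA. Phosphorylation was detected by TR-FRET after adding a solution of 40 nM streptavidin-d2 and 2 nM Tb-labelled anti-pSer641 antibody.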

[2] = target: Glycogen synthase kinase-3 beta (Homo sapiens, UniProt P49841); experiment: TR-FRET Assay
Method in brief: as §1

Sequence of Glycogen synthase kinase-3 alpha (P49840 whole entry): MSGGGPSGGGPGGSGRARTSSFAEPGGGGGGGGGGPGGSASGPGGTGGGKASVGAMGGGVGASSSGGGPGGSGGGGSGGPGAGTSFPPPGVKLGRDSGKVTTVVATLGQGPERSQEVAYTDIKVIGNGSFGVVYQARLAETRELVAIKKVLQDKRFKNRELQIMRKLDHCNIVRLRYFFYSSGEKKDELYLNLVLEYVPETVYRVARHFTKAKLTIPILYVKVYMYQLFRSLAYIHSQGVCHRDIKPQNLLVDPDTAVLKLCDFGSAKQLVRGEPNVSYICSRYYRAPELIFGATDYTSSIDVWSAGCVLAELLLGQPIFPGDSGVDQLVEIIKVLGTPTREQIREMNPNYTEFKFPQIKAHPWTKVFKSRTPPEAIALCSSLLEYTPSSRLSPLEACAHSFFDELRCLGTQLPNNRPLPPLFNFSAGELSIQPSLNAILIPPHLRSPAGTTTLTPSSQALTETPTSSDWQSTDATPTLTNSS
Sequence of Glycogen synthase kinase-3 beta (P49841 whole entry): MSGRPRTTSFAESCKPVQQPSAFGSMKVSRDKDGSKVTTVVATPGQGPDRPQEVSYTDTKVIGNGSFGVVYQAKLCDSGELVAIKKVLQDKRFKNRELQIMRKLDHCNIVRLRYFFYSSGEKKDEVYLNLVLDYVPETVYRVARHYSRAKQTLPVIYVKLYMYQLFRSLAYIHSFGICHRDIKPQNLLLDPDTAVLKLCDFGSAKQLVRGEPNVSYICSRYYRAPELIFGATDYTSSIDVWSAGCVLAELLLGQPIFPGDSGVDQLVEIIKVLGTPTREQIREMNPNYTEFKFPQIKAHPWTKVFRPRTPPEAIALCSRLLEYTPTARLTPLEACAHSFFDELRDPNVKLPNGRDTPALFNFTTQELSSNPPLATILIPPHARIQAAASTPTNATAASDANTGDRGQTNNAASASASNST

| IC50 [1] | IC50 [2] | SMILES |
| --- | --- | --- |
| 100 to 1000 nM | > 5000 nM | CCC1(c2cccc(CN(C)C(=O)C(C)C)c2)C2=CN=NC2NC2=C1C(=O)CC(C)(C)C2 (stereo not drawn) [US20250313563, Compound 865195] |
| < 100 nM | < 100 nM and 100 to 1000 nM | CC[C@]1(c2cccc(-c3ccnc(C)c3)c2)C2=C(CC(C)(C)CC2=O)NC2N=NC(C(F)(F)F)=C21 (stereo partly drawn) [US20250313563, Compound 917291] |
| 1000 to 5000 nM | > 5000 nM | CC[C@@]1(c2cccc(-c3ccnc4cnccc34)c2)C2=CN=NC2NC2=C1C(=O)NC(C)(C)C2 (stereo partly drawn) [US20250313563, Compound 949110] |
| < 100 nM | 100 to 1000 nM | CC[C@]1(c2cccc(C(F)(F)F)c2)C2=C(N=NC2)NC2=C1C(=O)N(Cc1ccccc1)[C@@H]2C [US20250313563, Compound 930330] |
| < 100 nM | < 100 nM | CC1(C)CC(=O)C2=C(C1)NC1=C(CN=N1)C21CCN(S(=O)(=O)c2cnc3ccccn23)CC1 [US20250313563, Compound 947610] |
| 100 to 1000 nM | > 5000 nM | CC[C@@]1(c2cccc(C(F)(F)F)c2)C2=CN=NC2NC2=C1C(=O)N(c1ccccn1)CC2 (stereo partly drawn) [US20250313563, Compound 949311] |
| 1000 to 5000 nM | > 5000 nM | CC[C@]1(c2cccc(-c3cnnc(C)c3)c2)C2=CN=NC2NC2=C1C(=O)NC(C)(C)C2 (stereo partly drawn) [US20250313563, Compound 944071] |
| > 5000 nM | > 5000 nM | CC[C@@]1(c2cccc(-c3ccnn3C)c2)C2=CN=NC2NC2=C1C(=O)CC(C)(C)[C@H]2F (stereo partly drawn) [US20250313563, Compound 957508] |
| < 100 nM | < 100 nM | COCc1ccc(S(=O)(=O)N2CCC3(CC2)C2=C(N=NC2)NC2=C3C(=O)CC(C)(C)C2)cc1 [US20250313563, Compound 947250] |
| < 100 nM | < 100 nM | CC[C@]1(c2cccc(N(C)c3cccc(F)n3)c2)C2=CN=NC2NC2=C1C(=O)CC(C)(C)C2 (stereo partly drawn) [US20250313563, Compound 932636] |
| 100 to 1000 nM | 100 to 1000 nM | CC1(C)CC(=O)C2=C(C1)NC1=C(CN=N1)[C@]21CCOC1 [US20250313563, Compound 877313] |
| 100 to 1000 nM | 100 to 1000 nM | CC1(C)CC(=O)C2=C(C1)NC1N=NC=C1C21CCCN(CC(F)F)CC1 (stereo not drawn) [US20250313563, Compound 889574] |
| < 100 nM | 1000 to 5000 nM | CCC1(c2cccc(-c3cnn(C)n3)c2)C2=CN=NC2NC2=C1C(=O)CC(C)(C)C2 (stereo not drawn) [US20250313563, Compound 947492] |
| < 100 nM and 100 to 1000 nM | < 100 nM and 1000 to 5000 nM | CC[C@@]1(c2cccc(-c3ccnc(C)c3)c2)C2=C(CC(C)(C)NC2=O)NC2N=NC(Cl)=C21 (stereo partly drawn) [US20250313563, Compound 949422] |
| > 5000 nM | > 5000 nM | CC[C@]1(c2cccc(-c3ccnc4ccc(OC)cc34)c2)C2=CN=NC2NC2=C1C(=O)NC(C)(C)C2 (stereo partly drawn) [US20250313563, Compound 948518] |
| < 100 nM | 100 to 1000 nM | CCC1(c2cccc(-c3cn(C)nc3C(C)C)c2)C2=C(CC(C)(C)CC2=O)NC2N=NC(C)=C21 (stereo not drawn) [US20250313563, Compound 883998] |
| < 100 nM | < 100 nM | CCC1(c2cccc(S(C)(=O)=O)c2)C2=CN=NC2NC2=C1C(=O)NC(C)(C)C2 (stereo not drawn) [US20250313563, Compound 944020] |
| > 5000 nM | > 5000 nM | CC[C@@]1(c2cccc(C(F)(F)F)c2)C2=C(N=NC2)NC2=C1C(=O)NC2(C)C [US20250313563, Compound 913452] |
| 100 to 1000 nM | 1000 to 5000 nM | CC[C@H]1C[C@]2(CCO1)C1=C(N=NC1)NC1=C2C(=O)CC(C)(C)C1 [US20250313563, Compound 907329] |
| 100 to 1000 nM | 1000 to 5000 nM | CCC1(c2cccc(C(F)(F)F)c2)C2=CN=NC2NC2=C1C(=O)N(c1nn(C)cc1C)CC2 (stereo not drawn) [US20250313563, Compound 950486] |

| IC50 [1] | IC50 [2] | SMILES |
| --- | --- | --- |
| > 5000 nM | > 5000 nM | CC[C@]1(c2ccccc2)C2=CN=NC2NC2=C1C(=O)CC(C)(C)[C@@H]2F (stereo partly drawn) [US20250313563, Compound 957196] |
| < 100 nM | 100 to 1000 nM | CCC1(c2cccc(C)c2)C2=C(N=NC2)NC2=C1C(=O)CC1(CCCC1)C2 (stereo not drawn) [US20250313563, Compound 789565] |
| < 100 nM | < 100 nM | CC1(C)CC(=O)C2=C(C1)NC1=C(CN=N1)C21COC2(CN(C(=O)C(C)(C)F)C2)C1 (stereo not drawn) [US20250313563, Compound 947276] |
| < 100 nM and 100 to 1000 nM | < 100 nM and 1000 to 5000 nM | CCC1(c2cccc(N(C)c3ncccn3)c2)C2=C(CC(C)(C)NC2=O)NC2N=NC(F)=C21 (stereo not drawn) [US20250313563, Compound 949172] |
| 100 to 1000 nM | 100 to 1000 nM | O=C1C[C@@H](C(F)(F)F)CC2=C1C1(CCOCC1)C1=C(N=NC1)N2 [US20250313563, Compound 901478] |
| < 100 nM | 100 to 1000 nM | Cc1cc([C@H]2CC[C@@]3(CC2)C2=C(N=NC2)NC2=C3C(=O)CC(C)(C)C2)ccn1 [US20250313563, Compound 948416] |
| < 100 nM | < 100 nM | Cn1ccc(S(=O)(=O)N2CCC[C@]3(CC2)C2=CN=NC2NC2=C3C(=O)CC(C)(C)C2)n1 (stereo partly drawn) [US20250313563, Compound 932640] |
| > 5000 nM | > 5000 nM | CC[C@]1(c2ccccc2)C2=CN=NC2NC2=C1C(=O)[C@H](F)C(C)(C)C2 (stereo partly drawn) [US20250313563, Compound 957406] |
| < 100 nM | 100 to 1000 nM | CC1(C)CC(=O)C2=C(C1)NC1=C(CN=N1)C2(C)c1cccc(-c2ccncc2)c1 (stereo not drawn) [US20250313563, Compound 790730] |
| 100 to 1000 nM | > 5000 nM | CC[C@]1(c2cccc(C(F)(F)F)c2)C2=CN=NC2NC2=C1C(=O)N[C@@H](C)C2 (stereo partly drawn) [US20250313563, Compound 912097] |
| > 5000 nM | > 5000 nM | CCC1(c2ccccc2)C2=C(N=NC2)NC2=C1C(=O)N(C)CC2 (stereo not drawn) [US20250313563, Compound 883867] |
| < 100 nM | 100 to 1000 nM | CCC1(c2cccc(C(F)(F)F)c2)C2=CN=NC2NC2=C1C(=O)CC(C)C2 (stereo not drawn) [US20250313563, Compound 801397] |
| < 100 nM | < 100 nM and 100 to 1000 nM | COc1ncccc1S(=O)(=O)N1CCC2(CC1)C1=C(N=NC1)NC1=C2C(=O)CC(C)(C)C1 [US20250313563, Compound 947260] |
| > 5000 nM | > 5000 nM | CC[C@@]1(c2cccc(Br)c2)C2=CN=NC2NC2=C1C(=O)C[C@H](C(F)(F)F)C2 (stereo partly drawn) [US20250313563, Compound 826654] |
| > 5000 nM | > 5000 nM | CC[C@@]1(c2cccc(C(F)(F)F)c2)C2=CN=NC2NC2=C1C(=O)N(CCOC)CC2 (stereo partly drawn) [US20250313563, Compound 949600] |
| 100 to 1000 nM | 1000 to 5000 nM | CCC1(c2cccc(N(C)C3CC3)c2)C2=CN=NC2NC2=C1C(=O)CC(C)(C)C2 (stereo not drawn) [US20250313563, Compound 945466] |
| < 100 nM | 100 to 1000 nM | CCC1(c2cccc(N(C)c3cc(C)ccn3)c2)C2=CN=NC2NC2=C1C(=O)CC(C)(C)C2 (stereo not drawn) [US20250313563, Compound 943537] |
| < 100 nM | 100 to 1000 nM | CC[C@]1(c2cccc(C(F)(F)F)c2)C2=CN=NC2NC2=C1C(=O)N(C)CC2 (stereo partly drawn) [US20250313563, Compound 917282] |
| < 100 nM | < 100 nM | CCC1(c2cccc(NS(C)(=O)=O)c2)C2=CN=NC2NC2=C1C(=O)CC(C)(C)C2 (stereo not drawn) [US20250313563, Compound 913253] |
